Experimental data taken from patent publication US20240299562A1 (priority 2020, published 2024).
*1 amine or outer side, *2 acyl side, *3 side chain or, on linkers, in order; H or OH if unused. Where a SMILES comes first, the peptide text is derived from it. [ ]: non-standard residue; d: D form. The star is where a group is joined. X1 = CO[C@@H](C1CCCN1[*:1])[C@@H](C)C(=O)[*:2]; Dil = CC[C@H](C)[C@H](NC)[C@@H](CC(=O)O)OC; PABC = O=C(OCc1ccc(N[*:1])cc1)[*:2]; Phosphonoacetyl = O=C(CP(=O)(O)O)*; X2 = C[C@@H](N*)[C@@H](O)c1ccccc1; NMeV = CN[C@H](C(=O)O)C(C)C

Experiments:
cancer cell lines = experiment: In vitro potency and selectivity across a variety of cancer indications (WST-1); type: cell-based; conditions: 72 hrs
Description: All commercial cell lines were purchased at ATCC (LGC Standards SARL, France). Cells were seeded in 96-well plates according to their optimal seeding density, varying between 5.000 and 10.000 cells/well. After attachment overnight, 10-point serial titrations (1:5) were prepared in their equivalent complete media as recommended by ATCC, starting from the 10 mM stock solutions. For doxorubicin comprising prodrugs dilutions started from 100 μM, while for the parent compound doxorubicin dilutions started at 10 μM. […] Seventy-two hours later, compounds were removed together with the supernatants and cells were washed once with PBS to remove excess drugs.
The WST-1 assay for cell proliferation and viability (Roche, Switzerland) was performed according to manufacturer's protocol. Absorbances were measured at 4 hrs using a Perkin Elmer Ensight multiplate reader, equipped with Kaleido 2.0 software (Perkin Elmer, USA). Cell viability was expressed as a percentage compared to non-treated cells. Absolute IC50 values were extrapolated from a non-linear fitting following the Sigmoidal-4PL regression method using Graphpad Prism 7.0. Likewise, maximal efficacy was determined as 100% minus the cell viability determined when cells are incubated in the presence of a compound. […]

[1] = test system: U87 MG glioblastoma cells subcutaneously implanted in nude NMRI mice; experiment: In vivo activity of PhAc-ALLP-PABC-MMAE on U87 MG glioblastoma xenograft; parameters: species or system mouse; conditions: 2 mg/kg iv, once per week
Description: The in vivo efficacy of PhAc-ALLP-PABC-MMAE was tested in a mouse GBM model. U87 MG glioblastoma cells were subcutaneously (SC) implanted in nude NMRI mice. In total, 24 adult (9-10 weeks old) nude female NMRI mice (Janvier, France) were subjected to SC tumor cell grafting in the right flank. In total, 5×10^6 U87 MG cells resuspended in PBS plus Matrigel (1:1) were injected in 200 uL final volume. As soon as the tumors were palpable and reached the volume of 200 mm3 the treatment was started. At day zero, mice were randomly divided into 3 groups, based on the tumor volume, in order to have the following experimental sub-cohorts: • control group receiving the vehicle (PBS pH7.2) with a dose of 5 ml/kg, intravenously (iv), once per week (QW); • PhAc-ALLP-PABC-MMAE (2 mg/kg iv, QW); • MMAE (0.9 mg/kg iv, QW).
Treatments were performed once per week for a total of four tail vein administrations/injections (on days 1, 7, 14 and 21). One extra week of observation followed the active treatment phase. During the experiment, tumor volume was measured two times a week and was assessed three-dimensionally with a digital caliper (Mitutoyo, Illinois) using the following formula:
(§1) V=4/3π×[(d/2)^2×(D/2)], where d is the minor tumor axis and D is the major tumor axis.

[2] = test system: A2058 melanoma cells subcutaneously implanted in nude NMRI mice; experiment: In vivo activity on A2058 melanoma xenograft; parameters: species or system mouse
Description: The in vivo efficacy of PhAc-ALLP-PABC-MMAE was tested in a mouse melanoma model. A2058 melanoma cells were subcutaneously (SC) implanted in nude NMRI mice. In total, 36 adult (9-10 weeks old) nude female NMRI mice (Janvier, France) were subjected to SC tumor cell grafting in the right flank. In total, 3×10^6 A2058 cells resuspended in PBS plus Matrigel (1:1) were injected in 200 uL final volume. As soon as the tumors were palpable and reached the volume of 200 mm3 the treatment was started. At day zero, mice were randomly divided into 4 groups, based on the tumor volume, in order to have the following experimental sub-cohorts: • control group receiving the vehicle (PBS pH7.2) with a dose of 5 ml/kg, intravenously (iv), once per week (QW); • PhAc-ALLP-PABC-MMAE (2 mg/kg iv, QW); • PhAc-ALLP-PABC-MMAE (4 mg/kg iv, QW); • MMAE (0.9 mg/kg iv, QW).
Treatments were performed once per week for a total of four tail vein administrations/injections (on days 1, 7, 14 and 21). Two extra weeks of observation followed the active treatment phase. During the experiment, tumor volume was measured two times a week and was assessed three-dimensionally with a digital caliper (Mitutoyo, Illinois) using the following formula:
as §1

SMILES	Potency range against cancer cells (cancer cell lines)	Macroscopical toxicity [1]	Tumor volume compared to the untreated control group ([1]; four administrations)	Tumor volume compared to the untreated control group ([2]; 2 mg/kg iv, once per week, four administrations)	Response ([2]; 2 mg/kg iv, once per week, observed until day 34)	Relapse and macroscopical toxicity ([2]; 2 mg/kg iv, once per week, until day 34)	Tumor growth ([2]; higher concentration (4 mg/kg iv, once per week))	Reduction of body weight ([2]; higher concentration (4 mg/kg iv, once per week), sacrificed at day 21)
COc1cccc2c1C(=O)c1c(O)c3c(c(O)c1C2=O)C[C@@](O)(C(=O)CO)C[C@@H]3O[C@H]1C[C@H](NC(=O)[C@@H]2CCCN2C(=O)[C@H](CC(C)C)NC(=O)[C@H](CC(C)C)NC(=O)[C@H](C)NC(=O)CP(=O)(O)O)[C@H](O)[C@H](C)O1 [PhAc-ALLP-Dox, PhAc-ALLP-Doxorubicin] (HELM PEPTIDE1{[O=C(CP(=O)(O)O)[*:2]].A.L.L.P.[COc1cccc2c1C(=O)c1c(O)c3c(c(O)c1C2=O)C[C@@](O)(C(=O)CO)C[C@@H]3O[C@H]1C[C@H](N[*:1])[C@H](O)[C@H](C)O1]}$$$$V2.0)	within the micromolar range							
CC[C@H](C)[C@@H]([C@@H](CC(=O)N1CCCC1[C@H](OC)[C@@H](C)C(=O)N[C@H](C)[C@@H](O)c1ccccc1)OC)N(C)C(=O)[C@@H](NC(=O)[C@H](C(C)C)N(C)C(=O)OCc1ccc(NC(=O)[C@@H]2CCCN2C(=O)[C@H](CC(C)C)NC(=O)[C@H](CC(C)C)NC(=O)[C@H](C)NC(=O)CP(=O)(O)O)cc1)C(C)C (some centres unmarked) [PhAc-ALLP-PABC-MMAE] (Phosphonoacetyl-ALLP[PABC][NMeV]V[Dil][X1]-X2)		without any hint of macroscopical sign of toxicity	importantly reduced the tumor volume	importantly reduced the tumor volume	Complete response	without any hint of relapse or macroscopical sign of toxicity	important reduction of tumor growth	> 20%
